Experiment [1] deals with C-33A PIK3CA-mutated cervical cancer cell line. As to the kind of experiment: CTG cell proliferation, C-33A. To be noted: 72 hours, read-out: Absolute IC50. The format is cell-based. An excerpt: (§1) (2) Reagents • 1) FBS (fetal bovine serum) (purchased from ExCell, product number: FND500); • 2) RPMI1640 medium (purchased from Hyclone, product number: SH30809.01); • 3) McCoy's 5A medium (purchased from Gibco, product number: 12330-031); • 4) MEM medium (purchased from Hyclone, product number: SH30024.01; • 5) MEM NEAA (purchased from Gibco, product number: 11140-050); • 6) Sodium pyruvate (purchased from Gibco). (3) Test Article and Positive Control Article • Test article: compound I; Positive Control Article: • 1) Alpelisib, molecular weight: 441.47; solvent: DMSO; storage condition after dissolution: −20° C.; supplier: Shanghai TOPSCIENCE Biochemical Technology Co., Ltd., CAS number: 1217486-61-7; • 2) Cisplatin, molecular weight: 300.05; solvent: PBS (phosphate buffer saline); storage condition: 2-8° C.; supplier: Qilu Pharmaceutical. (4) The CTG Method was Used to Determine the Cell Proliferation IC50 of the Compound
(§2) Step 1: Cells in exponential growth phase were harvested, and viable cells were counted with a Vi-Cell XR cytometer. The cell suspension was adjusted to an appropriate concentration with medium. 90 μL of cell suspension was added to each well of a 96-well cell culture plate, and the final cell concentration was 1500-6000 cells/well. […]
(§3) Step 3: After 72 hours of drug treatment, 50 μL (½ culture volume) CTG solution that was melted and equilibrated to room temperature was added to each well according to the CTG operation instruction. […] After 10 minutes, the fluorescence signal value was measured with an Envision2104 plate reader.
(§4) Cell survival rate was calculated using the formula: Vsample/Vvehicle control×100%. Where, Vsample was the reading of the drug treatment group, and Vvehicle control was the average value of the solvent control group. GraphPad Prism 5.0 software was used, and a S-type dosage-survival rate curve was drawn using a nonlinear regression model and IC50 value was calculated.

Experiment [2] deals with HEC-1-A PIK3CA-mutated endometrial cancer cell line. In words: CTG cell proliferation, HEC-1-A. To be noted: read-out: Absolute IC50. Format: cell-based. As for the experimental part:
(§5) (2) Reagents • 1) FBS (fetal bovine serum) (purchased from ExCell, product number: FND500); • 2) McCoy's 5A medium (purchased from Gibco, product number: 12330-031); • 3) MEM medium (purchased from Hyclone, product number: SH30024.01). (3) Test Article and Positive Control Article • Test article: compound I; • Positive control article: Alpelisib, molecular weight: 441.47; solvent: DMSO; storage condition after dissolution: −20° C.; supplier: Shanghai TOPSCIENCE Biochemical Technology Co., Ltd., CAS number: 1217486-61-7; (4) The CTG Method was Used to Determine the Cell Proliferation IC50 of the Compound
(§6) Step 1: Cells in exponential growth phase were harvested, and viable cells were counted with a Vi-Cell XR cytometer. […]
as §3, §4

For experiment [3], the system named is HEC-1-B PIK3CA-mutated endometrial cancer cell line. As to the kind of experiment: CTG cell proliferation, HEC-1-B. The format is cell-based. To be noted: read-out: Absolute IC50. The method, then: as §5
(§7) Step 1: Cells in exponential growth phase were harvested, and viable cells were counted with a Vi-Cell XR cytometer. The cell suspension was adjusted to an appropriate concentration with medium. 90 μL of cell suspension was added to each well of a 96-well cell culture plate, and the final cell concentration was 1500-6000 cells/well.
Step 2: The initial concentration of administration of compound I and the control drug Alpelisib was 3 μM, serially diluted 3-fold, a total of 9 concentration gradients and a DMSO control, the final concentration of DMSO in each well was 0.1%, placed in a 37° C., 5% CO2 incubator for 72 hours.
(§8) Step 3: After 72 hours of drug treatment, 50 μL (½ culture volume) CTG solution that was melted and equilibrated to room temperature was added to each well according to the CTG operation instruction. The solution was mixed well with a microplate shaker for 2 minutes, and placed at room temperature. After 10 minutes, the fluorescence signal value was measured with an Envision2104 plate reader.
as §4

Experiment [4] deals with PIK3CA-mutated cervical cancer cells. As to the kind of experiment: CTG cell proliferation, cervical cancer cell lines. Format: cell-based. To be noted: across PIK3CA-mutated cervical cancer cell lines, 72 hours, Alpelisib: in two cell lines, read-out: half inhibitory concentration.
From the text: (2) Reagents • 1) FBS (fetal bovine serum) (purchased from ExCell, product number: FND500); • 2) RPMI1640 medium (purchased from Hyclone, product number: SH30809.01); • 3) McCoy's 5A medium (purchased from Gibco, product number: 12330-031); • 4) MEM medium (purchased from Hyclone, product number: SH30024.01; • 5) MEM NEAA (purchased from Gibco, product number: 11140-050); • 6) Sodium pyruvate (purchased from Gibco). […]
as §6, §3, §4

Experiment [5] concerns Ca Ski PIK3CA-mutated cervical cancer cell line. In words: CTG cell proliferation, Ca Ski. The format is cell-based. To be noted: 72 hours, read-out: Absolute IC50.
From the text: as §1, §2, §3, §4

For experiment [6], the system named is ME-180 PIK3CA-mutated cervical cancer cell line. In words: CTG cell proliferation, ME-180. Format: cell-based. To be noted: ME-180, CTG, 72 hours, read-out: Absolute IC50.
From the text: as §1, §2, §3, §4

The subject of experiment [7] is T47D PIK3CA-mutated breast cancer cell line. As to the kind of experiment: CTG cell proliferation, T47D. The format is cell-based. To be noted: 72 hours, read-out: Absolute IC50.
From the text: (§9) (2) Reagents • 1) FBS (fetal bovine serum) (purchased from ExCell, product number: FND500); • 2) DMEM medium (purchased from Gibco, product number: C11995500BT); • 3) Insulin (purchased from Gibco, product number: EPX010-12003-901); • 4) RPMI1640 medium (purchased from Hyclone, product number: SH30809.01); • 5) MEM medium (purchased from Hyclone, product number: SH30024.01). (3) Test Article and Positive Control Article • Test article: compound I; • Positive control article: Cisplatin, Molecular weight: 300.05; Solvent: PBS (phosphate buffer saline); Storage condition: 2-8° C.; Supplier: Qilu Pharmaceutical. (4) The CTG Method was Used to Determine the Cell Proliferation IC50 of the Compound.
as §7
(§10) Step 2: The initial concentration of administration of compound I was 3 μM, and the initial concentration of administration of the control drug Cisplatin was 100 μM, and serially diluted 3-fold, a total of 9 concentration gradients and a DMSO control, the final concentration of DMSO in each well was 0.1%, placed in a 37° C., 5% CO2 incubator for 72 hours.
as §3, §4

Experiment [8] has as its system TCCSUP PIK3CA-mutated bladder cancer cell line. As to the kind of experiment: CTG cell proliferation, TCCSUP. Format: cell-based. To be noted: 72 hours, read-out: Absolute IC50.
From the text: (§11) (2) Reagents • 1) FBS (fetal bovine serum) (purchased from ExCell, product number: FND500); • 2) MEM medium (purchased from Hyclone, product number: SH30024.01; • 3) MEM NEAA (purchased from Gibco, product number: 11140-050); • 4) Sodium pyruvate (purchased from Gibco). […] (4) The CTG Method was Used to Determine the Cell Proliferation IC50 of the Compound
as §7, §8
(§12) Cell survival rate was calculated using the formula: Vsample/Vvehicle control×100%. Where, Vsample was the reading of the drug treatment group, and Vvehicle control was the average value of the solvent control group.

Experiment [9] has as its system J82 PIK3CA-mutated bladder cancer cell line. In words: CTG cell proliferation, J82. To be noted: 72 hours, read-out: Absolute IC50. The format is cell-based.
From the text: as §11, §7, §8, §12

For experiment [10], the system named is BT-474 PIK3CA-mutated breast cancer cell line. As to the kind of experiment: CTG cell proliferation, BT-474. Format: cell-based, human. To be noted: BT-474, CTG, 72 hours; read-out: Absolute IC50.
From the text: as §9, §7, §10, §3, §4

Experiment [11] concerns human breast cancer BT-474 subcutaneous xenograft tumor. In words: In vivo efficacy, BT-474 subcutaneous xenograft tumor model. To be noted: for Tumor volume (Day 20): Mean ± SEM; for T/C / TGI: day 20. More on the design: species or system BALB/c nude mice. The method, then:
Experimental purpose: Study the in vivo efficacy of the test drug on human breast cancer BT-474 subcutaneous xenograft tumor BALB/c nude mouse model.
(1) Cell culture: human breast cancer BT-474 cells were monolayer cultured in vitro. The culture conditions were that 10% fetal bovine serum, 100 U/ml penicillin (purchased from Gibco) and 100 μg/ml chain Mycin (purchased from Gibco) were added to Hybri-Care medium, and cultured at 37° C. and 5% CO2. Routine digestion and passage were performed with trypsin-EDTA (purchased from Gibco, product number: 25200-072) twice a week. When the cell saturation was 80%-90%, the cells are harvested, counted and inoculated.
(2) Animals: BALB/c nude mice, female, 6 weeks old, weighing 16-18 grams. Provided by Shanghai Sippe-Bk Lab Animal Co., Ltd.
(3) Control article: • Both PF05212384 and Everolimus were purchased from Shanghai TOPSCIENCE Biochemical Technology Co., Ltd.
(4) Tumor inoculation: 0.2 ml (1×10^7) BT-474 cells (matrigel was added, volume 1:1) were subcutaneously inoculated on the right back of each mouse, and the mice were divided into groups and administered with drugs when the average tumor volume reached 122 mm^3. See Table 10 below for the experimental grouping and dosing regimen.

Where [12] appears, read: 5 mg/kg, oral, once a day for 20 days, vs Solvent 2.
[13] abbreviates: 20 mg/kg, vein, once a week for 3 weeks, vs Solvent 1.

pIC50: −log10 of the molar value. Read-outs that look alike come from different tables or passages of the source.

For orientation: T/C means the ratio of treated to control.

`Cc1nc(NC(=O)N2CCC[C@H]2C(N)=O)sc1-c1ccnc(C(C)(C)C(F)(F)F)c1` [Alpelisib]: the pIC50 in experiment [1] (Homo sapiens) was under 5.52; in [2] (72 hours), 5.61; in [2] (Homo sapiens, 72 h) it was under 5.70; in experiment [3] (72 hours), 5.62; in [3] (Homo sapiens, HEC-1B, 72 h) it was under 5.70; in experiment [4] it was under 5.52. The figures for the pIC50 in [5] (Homo sapiens) and in experiment [6] (Homo sapiens) were under 5.52 and 5.68, respectively.
Regarding `N.N.[Cl][Pt][Cl]` [Cisplatin], the pIC50 in experiment [7] is 4.44; in [1], 5.45; in experiment [8] it was 5.42; in [5] it was 4.79; in [9], 5.76; in [10] it was under 4.00. The pIC50 in [6] was 5.55.
Take `CO[C@H]1C[C@@H]2CC[C@@H](C)[C@@](O)(O2)C(=O)C(=O)N2CCCC[C@H]2C(=O)O[C@H]([C@H](C)C[C@@H]2CC[C@@H](OCCO)[C@H](OC)C2)CC(=O)[C@H](C)/C=C(\C)[C@@H](O)[C@@H](OC)C(=O)[C@H](C)C[C@H](C)/C=C/C=C/C=C/1C` [Everolimus, reference compound]: in experiment [11] (5 mg/kg, oral, once a day for 20 days), the “Tumor volume (Day 20)” value stood at 82 ± 17 mm^3. In experiment [11] (setting [12]), the T/C is reported as 19% and the TGI is listed as 113%.
As for `CN(C)C1CCN(C(=O)c2ccc(NC(=O)Nc3ccc(-c4nc(N5CCOCC5)nc(N5CCOCC5)n4)cc3)cc2)CC1` [PF05212384, reference compound], the “Tumor volume (Day 20)” value in [11] (20 mg/kg, vein, once a week for 3 weeks) is 49 ± 6 mm^3. Besides, in [11] (setting [13]), the T/C stood at 15% and the TGI amounted to 134%.
